Entries after “also recorded” stand apart in the source; their conditions may differ. Where no end group is shown, it is not given here. [ ]: non-standard residue; d: D form.
How the values were obtained:
[1] = system: HUVECs; assay: Inhibition of the LL-37/hCAP-18-induced proliferative response of endothelial cells; format: cell-based, human; settings: for effect of the inhibitor on LL-37/hCAP-18-induced endothelial proliferation: HUVECs preincubated with the inhibitor (pertussis toxin 10 ng/ml); for effect of the inhibitor on baseline cell proliferation: HUVECs, without LL-37/hCAP-18
Experimental: (§1) Endothelial cells from human umbilical veins (HUVEC) were isolated as described before^8. 10^4 cells were seeded on six well plastic dishes in serum free medium. Different concentrations of LL-37 were added to the culture medium. VEGF (5 ng/ml, 165 amino acid variant, Sigma Chemicals, Munich, Germany) was used as positive control. After 72 h the cells were detached from the support and counted. Experiments were repeated ten times using synthetic LL-37/hCAP-18 (37 C-terminal amino acids) and the hexapeptide WKYMVm, wherein “m” denotes the D-form of the amino acid methionine, from two different sources (IPF Pharmaceuticals, Hannover, Germany and Institute for Biochemistry, Humboldt-University of Berlin, Germany). As control peptide we used the peptide L-14 […] to have any interactions with FPRL1 from the same source (Humboldt-University). Human serum (10%, donor with ABO blood group O) was applied under the same conditions to analyze any impact on induction of proliferation by LL-37. For inhibition experiments we applied inhibitors of G-protein coupled receptors (pertussis toxin, 10 ng/ml), PI-3K (wortmannin), and PKC (GF 109203X). For Matrigel assays HUVECs were seeded on Matrigel support (Beckton Dickinson, Franklin Lakes, N.J.) and cultivated in serum free medium in the absence or presence of 0.5 μg/ml LL-37. After 18 h, the cultures were inspected for the formation of rings and cords. Experiments were repeated three times.
As a next step we analyzed which mechanisms might be involved in the angiogenic activity of LL-37/hCAP-18. We applied inhibitors of G-protein coupled receptors (pertussis toxin), PI-3K (wortmannin), and PKC (GF 109203X) and monitored cell proliferation as outcome parameter.

[2] = system: HUVECs; assay: In vitro proliferation assay with HUVECs; format: cell-based, human
Experimental: as §1
We measured the ability of LL-37/hCAP-18 to accelerate proliferation of HUVECs in a proliferation assay. […] HUVECs were seeded on six well plastic dishes and cultivated in serum free medium. Different concentrations of LL-37/hCAP-18 and control peptides were added to the culture medium. Figures on the left hand side indicate the numbers of cells per μl of volume after 72 h. VEGF was used as positive control. In vitro proliferation was not inhibited by human serum. A significance level of P<0.05 is labeled with **.b. […] HUVECs were seeded on Matrigel support and cultivated in serum free medium in the absence (c) or presence (d) of 0.5 μg/ml LL-37/hCAP-18. After 18 h, the cultures were inspected for the formation of rings and cords. Representative figures are shown.

[3] = system: HUVECs; assay: In vitro Matrigel assay (formation of rings and cords); format: cell-based, human; settings: HUVECs on Matrigel, serum free medium, 0.5 μg/ml, 18 h
Experimental: Endothelial cells from human umbilical veins (HUVEC) were isolated as described before^8. 10^4 cells were seeded on six well plastic dishes in serum free medium. Different concentrations of LL-37 were added to the culture medium. VEGF (5 ng/ml, 165 amino acid variant, Sigma Chemicals, Munich, Germany) was used as positive control. After 72 h the cells were detached from the support and counted. Experiments were repeated ten times using synthetic LL-37/hCAP-18 (37 C-terminal amino acids) and the hexapeptide WKYMVm, wherein “m” denotes the D-form of the amino acid methionine, from two different sources (IPF Pharmaceuticals, Hannover, Germany and Institute for Biochemistry, Humboldt-University of Berlin, Germany). As control peptide we used the peptide L-14 […] to have any interactions with FPRL1 from the same source (Humboldt-University). Human serum (10%, donor with ABO blood group O) was applied under the same conditions to analyze any impact on induction of proliferation by LL-37. For inhibition experiments we applied inhibitors of G-protein coupled receptors (pertussis toxin, 10 ng/ml), PI-3K (wortmannin), and PKC (GF 109203X). […]
We measured the ability of LL-37/hCAP-18 to accelerate proliferation of HUVECs in a proliferation assay. […]

[4] = system: ischemic hindlimb; assay: Rabbit hind limb model of arteriogenesis and angiogenesis; format: in vivo; settings: 200 μg intramuscular 7 days after femoral artery excision, vs PBS control, day 35
Experimental: To analyze angiogenic effects of LL-37 in vivo we used a rabbit model of angiogenesis. German Giant Rabbits (6.5±0.4 kg, n=8) were subjected to ligation of the external iliac artery (proximally), the popliteal and saphenous arteries (distally) and all femoral artery branches, followed by excision of the entire femoral artery. Seven days after surgery, synthetic LL-37 (200 μg in 1 ml PBS) or PBS alone as control were injected into the muscles of the medial thigh and the calf (5 injections sites, n=4/group). Seven (baseline) and thirty-five days after surgery, angiography was performed by automated injection of contrast agent into the abdominal aorta (4 ml at 2 ml/sec; cine-angiography 25 frames/sec; Siemens, Munich, Germany). Collateral growth was defined as the increase in angiographic collateral score between baseline and 35 days after initial surgery (assessed by counting the contrast-opacified collateral vessels in the medial thigh using a grid overlay)^12. Blood flow was assessed by cine-frame-count of the passage time of contrast agent between the common iliac artery and the anterior tibial artery (proximal and distal landmarks), adapting the TIMI frame-count method to peripheral blood flow^13. Blood flow measurements correlate well with results obtained with doppler flow-wire in the internal iliac artery (Jomed, Haan, Germany). Tissue specimens were sampled from the right gastrocnemius and fibularis muscles for histology (alkaline phosphatase staining using an indoxyl-tetrazolium method), capillary density was assessed as the ratio of capillaries to muscle fibers (4 fields, 200× magnitude).
To assess the effect of LL-37/hCAP-18 on both angiogenesis and the induction of collateral circulation under pathological conditions, we applied the substance in a rabbit hind limb model. In this model angiogenesis and collateral vessel growth (arteriogenesis) are induced by excision of the femoral artery. Seven days after surgical excision of the femoral artery, baseline measurements were performed and LL-37/hCAP-18 or buffer as control were injected into the ischemic hindlimb.

[5] = serum free medium, cell count after 72 h

| Compound | effect of the inhibitor on LL-37/hCAP-18-induced endothelial proliferation [1] | effect of the inhibitor on baseline cell proliferation [1] | endothelial proliferation [2, 5] | further results |
| --- | --- | --- | --- | --- |
| CN(C)CCCn1cc(C2=C(c3c[nH]c4ccccc34)C(=O)NC2=O)c2ccccc21 [GF 109203X] | inhibition of the proliferative response; also recorded: inhibited activities of LL-37/hCAP-18 on endothelial proliferation | no effect on the baseline measurements |  |  |
| LLGDFFRKSKEKIGKEFKRIVQRIKDFLRNLVPRTES [LL-37/hCAP-18, human cathelicidin antimicrobial peptide, the 37 C-terminal amino acid residues; synthetic peptide used in the tests] |  |  | dose-dependent increase of endothelial proliferation | proliferative activity in the presence of human serum ([2]; 10% human serum, 72 h): not inhibited; also recorded: not blocked; minimal concentration necessary to induce significant increase of proliferation [2, 5]: 50 ng/mL; formation of rings and cords of cells [3]: significantly induces the formation of visible rings and cords of cells; blood flow (cine-frame-count of contrast agent passage time) [4]: significantly increased; also recorded: significantly augmented; capillary density (capillaries to muscle fibers, calf muscles) [4]: higher capillary density; collateral growth (increase in angiographic collateral score, medial thigh) [4]: significantly increased collateral growth; also recorded: significant increase |
| WKYMVm (WKYMV[dM]) [synthetic hexapeptide, "m" denotes the D-form of methionine; specific agonist for FPRL1, reference compound] |  |  | stimulated proliferation of endothelial cells |  |
| pertussis toxin | inhibition of the proliferative response; also recorded: inhibited activities of LL-37/hCAP-18 on endothelial proliferation | no effect on the baseline measurements |  |  |
